{"source": "PubChem BioAssay AID720570", "about": "(Broad Institute, 2013)", "note": "The source made the active and inactive calls.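 The calls were made as follows: active = cell-killing curve crosses a set limit at a concentration no more than twice the top valid dose; inconclusive = flat curve with a 30 to 70% loss, or a poor fit; inactive = signal rising instead of falling, and the rest.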"}
{"test": "cytotoxicity in EWS/Fli1-dependent TC71 cells – cell-based, luminescence, cherry-picked samples, retest, confirmation (AID 720570)", "conditions": "TC71 Ewing sarcoma viability, CellTiter-Glo ATP, 72 h; at 21 µM (top of the series)"}
{"compound": "COc1ccc(CN(C)C[C@H]2Oc3ccc(NC(=O)CCCCCC(=O)Nc4ccccc4N)cc3CC(=O)N([C@H](C)CO)C[C@H]2C)cc1", "activity change, negative = cytotoxicity": "-5.04% (inactive)"}
{"test": "cytotoxicity in EWS/Fli1-dependent TC71 cells – cell-based, luminescence, cherry-picked samples, retest, confirmation (AID 720570)", "conditions": "TC71 Ewing sarcoma viability, CellTiter-Glo ATP, 72 h; at 23.5 µM (top of the series)"}
{"compound": "N#C[C@H]1N[C@H](CO)[C@H]1c1ccc(C#Cc2ccccc2F)cc1", "activity change, negative = cytotoxicity": "-18.8% (inactive)"}
{"compound": "COC(=O)C[C@@H]1CC[C@@H]2[C@@H](COc3ccc(NC(=O)Nc4ccccc4C)cc3C(=O)N2C)O1", "activity change, negative = cytotoxicity": "14.2% (inactive)"}
{"compound": "O=S(=O)(c1ccc(F)cc1)N1C[C@H]2[C@@H](c3ccccc31)[C@H](CO)N2Cc1ccccc1Cl", "activity change, negative = cytotoxicity": "-20.2% (inactive)"}
{"test": "cytotoxicity in EWS/Fli1-dependent TC71 cells – cell-based, luminescence, cherry-picked samples, retest, confirmation (AID 720570)", "conditions": "TC71 Ewing sarcoma viability, CellTiter-Glo ATP, 72 h; at 26 µM (top of the series)"}
{"compound": "C=CCOc1ccccc1C(=O)/C=C1/C(=O)Nc2ccccc21", "activity change, negative = cytotoxicity": "-30.1% (inactive)"}
{"compound": "COc1ccc(N=C(NN)c2ccc3ccccc3n2)cc1", "activity change, negative = cytotoxicity": "4.27% (inactive)"}
{"compound": "CCOc1ccc(-c2noc(CCC(=O)O)n2)cc1", "activity change, negative = cytotoxicity": "14.8% (inactive)"}
{"compound": "COc1cc(/C=N/NS(=O)(=O)c2ccc(C)cc2)ccc1OCc1cccc(C(=O)O)c1", "activity change, negative = cytotoxicity": "-3.76% (inactive)"}
{"compound": "CC(C)CN(C(=O)CN1CCOCC1)c1c(N)n(CC(C)C)c(=O)[nH]c1=O", "activity change, negative = cytotoxicity": "-2.81% (inactive)"}
{"compound": "O=C1C(=O)N(CCS(=O)(=O)c2ccccc2)c2ccccc21", "activity change, negative = cytotoxicity": "2.35% (inactive)"}
{"compound": "CN(C)C(=O)c1cccc(-c2ccc(C3[C@@H]4CN(Cc5nccs5)C[C@H]3N4)cc2)c1", "note": "(stereo partly drawn)", "activity change, negative = cytotoxicity": "0.197% (inactive)"}
{"compound": "COC(=O)c1cccc(NC(=O)NC(=O)c2ccc(Cl)cc2)c1", "activity change, negative = cytotoxicity": "-16.8% (inactive)"}
{"compound": "COC(=O)c1c(C)[nH]c(/C=N/Nc2ccccc2)c1C", "activity change, negative = cytotoxicity": "7.36% (inactive)"}
{"compound": "COC(=O)C[C@H]1C=C[C@@H](NC(=O)Nc2ccc(C(F)(F)F)cc2)[C@H](CO)O1", "activity change, negative = cytotoxicity": "9.61% (inactive)"}
{"compound": "O=C(Cc1nn[nH]n1)c1ccccc1O", "activity change, negative = cytotoxicity": "13.8% (inactive)"}
{"compound": "CCCN(C)C[C@H]1Oc2ncc(-c3ccccc3)cc2C(=O)N([C@@H](C)CO)C[C@H]1C", "activity change, negative = cytotoxicity": "13% (inactive)"}
{"compound": "CC(C)c1ccccc1NC(=O)COC(=O)CCN1C(=O)/C(=C\\C=C\\c2ccccc2)SC1=S", "activity change, negative = cytotoxicity": "19.1% (inactive)"}
{"compound": "COc1ccc(S(=O)(=O)N=Nc2c(O)[nH]c3ccccc23)cc1", "activity change, negative = cytotoxicity": "5.63% (inactive)"}
{"compound": "C[C@H](CO)N1C[C@H](C)[C@H](CN(C)Cc2ccc(C(F)(F)F)cc2)Oc2c(NS(=O)(=O)c3ccc(Cl)cc3)cccc2C1=O", "activity change, negative = cytotoxicity": "46.6% (inactive)"}
{"compound": "CCCn1nnc(NC(=S)NC(=O)C(C)(C)C)n1", "activity change, negative = cytotoxicity": "17.3% (inactive)"}
{"compound": "Cc1ccc(Cc2c(-c3ccco3)nc3c(C)cc(Br)cn23)cc1", "activity change, negative = cytotoxicity": "-21.5% (inactive)"}
{"compound": "COc1ccccc1/C=C1\\SC(=S)N(CCC(=O)Nc2cc(C)on2)C1=O", "activity change, negative = cytotoxicity": "6.74% (inactive)"}
{"compound": "O=C1NC(=O)N(CCc2ccc(F)cc2)C(=O)/C1=C/C=C/c1ccccc1", "activity change, negative = cytotoxicity": "11.3% (inactive)"}
{"compound": "COC(=O)C[C@H]1CC[C@H]2[C@H](COc3ccc(NC(=O)Nc4cccc(Cl)c4)cc3C(=O)N2C)O1", "activity change, negative = cytotoxicity": "-2.79% (inactive)"}
{"compound": "COC(=O)C[C@@H]1CC[C@H]2[C@H](COc3ccc(NC(=O)Nc4cc(C)cc(C)c4)cc3C(=O)N2C)O1", "activity change, negative = cytotoxicity": "5.7% (inactive)"}
{"compound": "CC(=O)Nc1ccc(S(=O)(=O)Nc2ccc(N3CCCCC3)cc2)cc1", "activity change, negative = cytotoxicity": "-4.73% (inactive)"}
{"compound": "CCOc1ccc(C(c2c(NC(=O)c3ccccc3)sc(C)c2C)N2CCN(CCO)CC2)cc1", "note": "(stereo not drawn)", "activity change, negative = cytotoxicity": "16.1% (inactive)"}
{"compound": "CCCCOc1ccc(NC(=O)C(=O)NCCCn2ccnc2)cc1", "activity change, negative = cytotoxicity": "-2% (inactive)"}
{"compound": "COc1ccc(/C=C2/SC(=S)N(CCCC(=O)Nc3ccccc3C(=O)O)C2=O)cc1", "activity change, negative = cytotoxicity": "15% (inactive)"}
{"compound": "CC(=O)Nc1cc(C(=O)NCc2ccco2)ccc1Sc1ccc(F)cc1", "activity change, negative = cytotoxicity": "-1.03% (inactive)"}
{"compound": "COc1ccccc1NS(=O)(=O)c1cc(NC(=O)c2cc3ccccc3oc2=O)ccc1C", "activity change, negative = cytotoxicity": "1.31% (inactive)"}
{"compound": "CCCCNC1=CC(=O)C(=O)c2ccccc21", "activity change, negative = cytotoxicity": "3.77% (inactive)"}
{"compound": "Cc1ccsc1/C=N/Nc1cccc(C(=O)O)c1", "activity change, negative = cytotoxicity": "-2.07% (inactive)"}
{"compound": "C/C(=N\\OCc1cccc(C(=O)O)c1)c1ccc(Cl)cc1", "activity change, negative = cytotoxicity": "-12.2% (inactive)"}
{"compound": "COc1ccc(CNc2ncc(-c3ccc(F)cc3)n2C)c2ccccc12", "activity change, negative = cytotoxicity": "-1.83% (inactive)"}
{"compound": "O=C(C[C@@H]1CC[C@@H]2[C@H](COC[C@@H](O)CN2S(=O)(=O)c2ccc(F)cc2)O1)NCc1ccc(Cl)c(Cl)c1", "activity change, negative = cytotoxicity": "-10.7% (inactive)"}
{"compound": "Cc1ccc(C(C(=O)NCc2ccco2)N(C(=O)CNC(=O)c2cccs2)c2c(C)cc(C)cc2C)cc1", "note": "(stereo not drawn)", "activity change, negative = cytotoxicity": "-13.1% (inactive)"}
{"compound": "O=C(O)c1cccc(N/N=C/c2cccs2)c1", "activity change, negative = cytotoxicity": "8.12% (inactive)"}
{"compound": "CN(C)C(=O)c1ccc(-c2ccccc2[C@@H]2[C@@H](CO)N(C(=O)C3CC3)[C@H]2C#N)cc1", "activity change, negative = cytotoxicity": "25.5% (inactive)"}
{"compound": "COc1ccc(C=NNc2nc3ccccc3s2)cc1", "activity change, negative = cytotoxicity": "-1.49% (inactive)"}
{"compound": "CC(Oc1cccc(Cl)c1)C(=O)NCCCCc1ccccc1", "note": "(stereo not drawn)", "activity change, negative = cytotoxicity": "13.3% (inactive)"}
{"compound": "Nc1ccc2c(c1)OC1(CCCC1)O2", "activity change, negative = cytotoxicity": "25.1% (inactive)"}
{"compound": "Cc1c(CC(=O)NCCCC(=O)O)c(=O)oc2cc3c(cc12)CCC(C)(C)O3", "activity change, negative = cytotoxicity": "4.66% (inactive)"}
{"compound": "Cc1ccsc1C(=O)OCC(=O)c1cc(C)n(C)c1C", "activity change, negative = cytotoxicity": "15.6% (inactive)"}
{"compound": "CN(C)c1ccc(N=Nc2ccccc2Br)cc1", "activity change, negative = cytotoxicity": "-15.6% (inactive)"}
{"compound": "C/C=C/c1ccc([C@H]2[C@@H](CO)N3C(=O)CN(S(=O)(=O)c4cccc(F)c4)C[C@@H]23)cc1", "activity change, negative = cytotoxicity": "13.2% (inactive)"}
{"compound": "CCCCCCN(C(=O)CCCCCN1C(=O)NC(c2ccc(Cl)cc2)C(C(=O)OCc2ccccc2)=C1C)C(C(=O)NCCCC)c1ccc(OCC(=O)OC)c(C(=O)OC)c1", "note": "(stereo not drawn)", "activity change, negative = cytotoxicity": "8.62% (inactive)"}
{"compound": "C[C@@H]1CN([C@@H](C)CO)S(=O)(=O)c2ccc(C#Cc3ccncc3)cc2O[C@H]1CN(C)S(=O)(=O)c1ccccc1", "activity change, negative = cytotoxicity": "-2.93% (inactive)"}
{"compound": "CCn1c(C)cc(C(=O)CN2C(=O)c3ccccc3S2(=O)=O)c1C", "activity change, negative = cytotoxicity": "9.04% (inactive)"}
{"compound": "Cc1ccc2oc(/N=C(\\N)NC(=O)C(C)(C)C)nc2c1", "activity change, negative = cytotoxicity": "2.46% (inactive)"}
{"compound": "C[C@@H]1CN([C@H](C)CO)S(=O)(=O)c2ccc(C#CC3CC3)cc2O[C@@H]1CN(C)Cc1ccccc1F", "activity change, negative = cytotoxicity": "-4.35% (inactive)"}
{"compound": "COC(=O)C[C@H]1CC[C@@H](NC(=O)Nc2ccc(C(F)(F)F)cc2)[C@H](CO)O1", "activity change, negative = cytotoxicity": "-8.02% (inactive)"}
{"compound": "O=C(CNC(=O)Cc1ccccc1)N=Nc1c(O)n(Cc2ccc3c(c2)OCO3)c2ccccc12", "activity change, negative = cytotoxicity": "8.54% (inactive)"}
{"compound": "Cc1ccc(C(=O)O/N=C(\\N)c2ccccn2)cc1", "activity change, negative = cytotoxicity": "-10% (inactive)"}
{"compound": "COCc1cc(C)nc2sc(C(=O)NCCO)c(-n3cccc3)c12", "activity change, negative = cytotoxicity": "3.9% (inactive)"}
{"compound": "C=CCn1c(O)c(N=Nc2ccccc2)c2ccccc21", "activity change, negative = cytotoxicity": "10.5% (inactive)"}
{"compound": "COc1ccc(C(=O)CN2C(=O)c3ccccc3S2(=O)=O)cc1", "activity change, negative = cytotoxicity": "19.9% (inactive)"}
{"compound": "CCOc1ccccc1CNC(=O)c1ccc(Sc2ccc(Cl)cc2)c(NC(C)=O)c1", "activity change, negative = cytotoxicity": "-3.24% (inactive)"}
{"compound": "CO[C@H]1CN(C)C(=O)c2cc(NC(=O)c3ccc(Oc4ccccc4)cc3)ccc2OC[C@H](C)NC[C@@H]1C", "activity change, negative = cytotoxicity": "-22.7% (inactive)"}
{"compound": "COc1ccc(Nc2ncnc3ccc(Br)cc23)c(OC)c1", "activity change, negative = cytotoxicity": "6.89% (inactive)"}
{"compound": "CCc1ccc(/C=C2\\SC(=S)N(CCCC(=O)Nc3cc(C)on3)C2=O)cc1", "activity change, negative = cytotoxicity": "20.2% (inactive)"}
{"compound": "O=C(Nc1cccc(Oc2ccc3c(c2)C(=O)NC3=O)c1)c1cccs1", "activity change, negative = cytotoxicity": "9.53% (inactive)"}
{"compound": "Nc1ccc(Oc2ccccc2-c2ccccc2)cc1", "activity change, negative = cytotoxicity": "5.42% (inactive)"}
{"compound": "CC(C)(C)c1ccc(Oc2ccc(NC(=O)C3CC=CCC3C(=O)O)cc2)cc1", "note": "(stereo not drawn)", "activity change, negative = cytotoxicity": "-20.1% (inactive)"}
{"compound": "CC(C)(C)C(=O)Nc1ccc(N=Nc2ccccc2)cc1", "activity change, negative = cytotoxicity": "-0.79% (inactive)"}
{"compound": "CC(=O)c1ccc(N=C2C(=O)Nc3ccccc32)cc1", "activity change, negative = cytotoxicity": "-7.15% (inactive)"}
{"compound": "COC(=O)Cc1ccc(NC(=O)c2ccccc2Cl)cc1", "activity change, negative = cytotoxicity": "-1.96% (inactive)"}
{"compound": "O=C(/C=C/c1ccc(Cl)cc1Cl)N(Cc1ccc(Cl)cc1)C1CCS(=O)(=O)C1", "note": "(stereo not drawn)", "activity change, negative = cytotoxicity": "11.6% (inactive)"}
{"compound": "COC(=O)C[C@H]1CC[C@H]2[C@@H](COc3ccc(NC(=O)Nc4cccc(Cl)c4)cc3C(=O)N2C)O1", "activity change, negative = cytotoxicity": "-10.7% (inactive)"}
{"compound": "Cc1ccc(NC(=O)COC(=O)c2ccc3c(c2)OCO3)cc1S(=O)(=O)N1CCCCC1", "activity change, negative = cytotoxicity": "10.2% (inactive)"}
{"compound": "CCCn1c(C)cc(C(=O)CN2C(=O)c3ccccc3S2(=O)=O)c1C", "activity change, negative = cytotoxicity": "5.44% (inactive)"}
{"compound": "COC(=O)C(CC#Cc1ccc2c(c1)[C@]1(C(=O)N2)[C@H](c2ccc(OCCO)cc2)N2[C@H](c3ccccc3)[C@H](c3ccccc3)OC(=O)[C@H]2[C@@H]1C(=O)N1CCN(c2ncccn2)CC1)C(=O)OC", "activity change, negative = cytotoxicity": "3.63% (inactive)"}
{"compound": "COc1cc(OC)cc(-c2cc3nc(C)c(CCC(=O)NCc4ccccc4)c(C)n3n2)c1", "activity change, negative = cytotoxicity": "9.58% (inactive)"}
{"compound": "COc1ccc2nc(-c3ccc(F)cc3)sc2c1", "activity change, negative = cytotoxicity": "-14.1% (inactive)"}
{"compound": "Cc1sc2nc(CN3CCC(C)CC3)nc(Cl)c2c1C", "activity change, negative = cytotoxicity": "16.2% (inactive)"}
{"compound": "Brc1ccc(CSc2nnc(-c3ccco3)o2)cc1", "activity change, negative = cytotoxicity": "9.85% (inactive)"}
{"compound": "Cc1ccccc1N=CC1=C(O)c2ccccc2C1=O", "activity change, negative = cytotoxicity": "20.2% (inactive)"}
{"compound": "C[C@@H]1CN([C@H](C)CO)C(=O)c2cc(NC(=O)CCCCCC(=O)Nc3ccccc3N)ccc2O[C@H]1CN(C)S(=O)(=O)c1ccc(Cl)cc1", "activity change, negative = cytotoxicity": "-12.6% (inactive)"}
